In patent publication US3931344A, “Bromofluorocyclopropanes” (priority 1974, dated 1976):

Legend:
Type in all cases: in vivo
[1] = inhalation anesthesia test in mice (10 min exposure in a rotating drum; pinch, corneal and righting reflexes); details: mouse, in vivo, inhaled or intranasal; calculated from LC50 and AC50 in mice; read-out: AI (anesthetic index, LC50/AC50)
Procedure: (§1) Mice were exposed to the anesthetic for a period of 10 minutes in a rotating drum. Observations were then made of the pinch reflex, the corneal reflex and the return of the righting reflex. At least four graded doses were employed to determine the minimum concentration required to anesthetize 50% of the mice used (AC50) and the minimum concentration required to kill 50% of the mice (LC50). The anesthetic index (AI) was then calculated from these minimum concentrations.

mice [2] = assay: as above; details: for potency as general anesthetics: administered in inhalation-anesthetic-susceptible organisms, in words; for AC50 (minimum concentration required to anesthetize 50% of the mice): inhalation, 10 minutes, rotating drum, at least four graded doses
Procedure: as §1

mice [3] = assay: lethality in mice on inhalation (LC50); details: 10 minutes, rotating drum, when two figures are given, the actual value lies between them
Procedure: as §1

| Compound | selectivity ratio at 10 min [1] | potency as general anesthetics (mice [2]) | AC50 (minimum concentration required to anesthetize 50% of the mice) (mice [2]) [% volume] | LC50 (minimum concentration required to kill 50% of the mice) (mice [3]) |
| --- | --- | --- | --- | --- |
| CC1(F)CC1(F)Br (centres unmarked) [Example 3, 1-bromo-1,2-difluoro-2-methylcyclopropane] | 10 | high potency | 0.5 | 5 % volume |
| CC1CC1(F)Br (centres unmarked) [Example 4, 1-bromo-1-fluoro-2-methylcyclopropane] | > 2 | high potency | < 2 | 4-6 % volume |
